Reference: patent US8293529B2, “Method for inducing differentiation of pluripotent stem cells into cardiomyocytes” (Daiichi Sankyo Company, Limited, priority 2006, dated 2012)

Experiments:
mouse ES cells [1] = settings: added for 3 days after initiation of differentiation induction (Naito et al.); cited from earlier work
mouse ES cells [2] = assay: Appearance rate of EBs exhibiting spontaneous beating; format: cell-based
Protocol: Culture for inducing differentiation of ES cells into cardiomyocytes or neurons was accomplished in a routine manner as follows. ES cells were suspended in LIF-free medium, and the resulting suspension was seeded at 500 cells/50 μL per well of a commercially available 96-well culture plate for spheroid formation (Sumilon Celltight Spheroid; Sumitomo Bakelite Co., Ltd., Japan).
In the early stage of differentiation in ES cells, transient elevations in expression of various Wnt genes were observed prior to the appearance of cardiomyocytes. Then, ES cells at this stage were treated with recombinant Wnt proteins to study the myocardial differentiation-inducing effect of the proteins. Induction of ES cell differentiation was accomplished in the same manner as used in Example 1, except that some of the experimental groups were cultured in medium containing a commercially available recombinant WNT-1 (Peprotech), Wnt-3a (R&D systems) or Wnt-5a (R&D systems) protein. Treatment of ES cells in medium supplemented with a recombinant protein of canonical Wnt such as WNT-1 is hereinafter referred to as “Wnt treatment.”
The above canonical Wnt protein treatment is known to inhibit the action of GSK3β within cells and thereby promote stabilization of β-catenin and its transcription activation ability. Then, further studies were performed to confirm that treatment with various drugs capable of promoting stabilization of β-catenin and its transcription activation ability produced a myocardial differentiation-inducing effect on ES cells, as in the case of Wnt treatment. As drugs capable of promoting stabilization of β-catenin and its transcription activation ability, the following five commercially available compounds were used: GSK3β inhibitors BIO (Calbiochem), GSK3β inhibitor VII (Calbiochem), cell-permeable GSK3β peptide inhibitor (L803-mts; Calbiochem) and SB216763 (Biomol), as well as a Wnt agonist (Calbiochem) that promotes the transcription activation ability of β-catenin without GSK3β inhibition. ES cells were induced to differentiate in the same manner as used in the above Examples, and cultured in medium containing the above compounds during the time period between 48 and 120 hours ([…]) after induction of differentiation, as in the case of recombinant Wnt proteins.

cmES cells [3] = assay: Immunohistochemical staining of marker proteins in EBs from cmES cells; format: cell-based, common marmoset; settings: EBs at 16 days after induction of differentiation
Protocol: Subsequently, immunohistochemical staining was performed in the same manner as used in Example 2 to confirm that beating cells developed in EBs from the Wnt-treated groups were cardiomyocytes producing specific marker proteins. From EBs in the Wnt-treated groups (Wnt-3a, WNT-1) at 16 days after induction of differentiation, frozen sections were prepared and reacted with anti-sarcomeric myosin antibody, anti-GATA-4 antibody or anti-Nkx-2.5 antibody as a primary antibody. After color reaction, these sections were observed under an optical microscope.

cmES cells [4] = assay: Marker gene expression in EBs from cmES cells (RT-PCR); format: cell-based, common marmoset; settings: EBs at 10 days after induction; vs untreated group
Protocol: The EBs thus prepared were collected periodically, and total RNA was prepared with an RNeasy mini kit (Qiagen). cDNA was then synthesized with reverse transcriptase and analyzed by PCR to detect expression of common marmoset Wnt-3 gene (cmWnt-3) and β-actin (cmβActin) serving as an endogenous control. The primers used for detection are as shown below.
Moreover, for analysis of expressed genes, EBs were collected at 10 days after induction of differentiation to detect expression of various marker genes in the same manner as used in Example 5. The primers used for detection of common marmoset Nestin, ANP, MLC-2a and MLC-2v transcripts (hereinafter referred to as cmNestin, cmANP, cmMLC-2a and cmMLC-2v, respectively) are as shown below.

## Wnt-3a
Mouse ES cells [1]
  effect on myocardial differentiation from ES cells: promote myocardial differentiation from ES cells
Mouse ES cells [2]; Wnt proteins added at 10 ng/mL to 50 ng/mL
  occurrence of beating EBs: very good occurrence of beating EBs
Mouse ES cells [2]; recombinant protein added at 1 ng/mL to 100 ng/mL
  appearance rate of beating EBs: significantly higher than in the untreated group
Mouse ES cells [2]; similar studies by the applicant, added for 3 days after initiation of induction (Example 2)
  promoting effect on differentiation: no significant promoting effect on differentiation
cmES cells [3]
  cells positive for sarcomeric myosin, GATA-4 and Nkx-2.5: the great majority of EB-constituting cells were found to be positive
cmES cells [4]
  expression of cardiomyocyte marker genes cmANP, cmMLC-2a and cmMLC-2v: significantly stronger expression
